Measurements published in patent US7915402B2, “Antioxidant inflammation modulators: oleanolic acid derivatives with saturation in the C-ring” (Reata Pharmaceuticals, Inc., priority 2008, dated 2011).
In brackets after ≈: the same amount, converted by molar mass. Several values for one entry are separate records, joined by “and”; a condition that tells them apart may be missing. Equal entries are not always repeated. Where two headings read alike, the source gives them in different places.

Tests used:
mice = conditions: sesame oil, N=4
[1] = tested on: thioredoxin reductase-1 (TrxR1); experiment: Nrf2 target gene induction, TrxR1 mRNA (qPCR); format: cell-based, human; conditions: MDA-MB-435 cells, 16 hours
Method: (§1) FIG. 21. Induction of HO-1, TrxR1 and γ-GCS. MDA-MB-435 human melanoma cells were treated with vehicle (DMSO) or the indicated compounds and concentrations for 16 hours. HO-1, thioredoxin reductase-1 (TrxR1), and γ-glutamylcysteine synthetase (γ-GCS) mRNA levels were quantified using qPCR and were normalized relative to a DMSO-treated sample run in parallel. Values are averages of duplicate wells.
FIG. 22. Induction of TrxR1. MDA-MB-435 human melanoma cells were treated with vehicle (DMSO) or the indicated compounds and concentrations for 16 hours. Thioredoxin reductase-1 (TrxR1) mRNA levels were quantified using qPCR and were normalized relative to a DMSO-treated sample run in parallel. Values are averages of duplicate wells. Compounds 401, 402-19 and 402-53 are comparison compounds (see Example 1).
(§2) Nrf2 target gene induction. MDA-MB-435 human melanoma cells were treated with vehicle (DMSO) or the indicated compounds and concentrations for 16 hours. HO-1, thioredoxin reductase-1 (TrxR1), γ-glutamylcysteine synthetase (γ-GCS), and ferritin heavy chain mRNA levels were quantified using qPCR and were normalized relative to a DMSO-treated sample run in parallel. Values are averages of duplicate wells. Primer sequences are as follows.

Ferritin heavy chain = experiment: Induction of ferritin heavy chain mRNA (qPCR); format: cell-based, human; conditions: MDA-MB-435 cells, 16 hours
Method: FIG. 24. Induction of Ferritin Heavy Chain. MDA-MB-435 human melanoma cells were treated with vehicle (DMSO) or the indicated compounds and concentrations for 16 hours. Ferritin heavy chain mRNA levels were quantified using qPCR and were normalized relative to a DMSO-treated sample run in parallel. Values are averages of duplicate wells.
as §2

NQO1 = experiment: Nrf2 target gene induction, NQO1; format: cell-based, human; conditions: MDA-MB-435 cells, 250 nM; fold induction above DMSO control
[2] = Plasma pharmacokinetics after oral dosing in monkeys; format: in vivo; conditions: cynomolgus monkey; for Mean Maximum 404-02 Plasma Concentration (nM) ± SEM / Mean Maximum 404-02 Plasma Concentration (ng/mL) ± SEM: oral gavage
Method: Doses were prepared in sesame oil and individualized to body weight on the day of dosing. Blood was drawn prior to dosing and at 1, 2, 4, 8 and 24 hours post -dose on days 1 and 12. Blood samples were collected from the femoral artery/vein for determination of 404-02 plasma concentrations. Blood was placed in tubes containing K3EDTA and stored on ice until centrifugation at room temperature. The isolated plasma was transferred to cryovials and stored at −80° C. until sample processing and LC -MS/MS analysis. Extracted plasma standard curves were prepared from fresh stock solutions and analyzed prior to study samples.
Population mean pharmacokinetic parameter estimates were obtained by performing non-compartmental analysis of the 404-02 plasma concentration-versus-time data using WinNonlin™ software version 5.2.
Pharmacokinetic parameters obtained using non-compartmental analysis, WinNonlin™ version 5.2.
Pharmacokinetic parameters were obtained using non-compartmental analysis using WinNonlin™ version 5.2 software.

[3] = Aqueous solubility determination (Multiscreen solubility filter plate, UV/vis); format: physicochemical; conditions: universal aqueous buffer, pH 7.4, aqueous buffer, kinetic from dmso stock, universal aqueous buffer pH 7.4, 90 min, room temperature
Method: Aqueous Solubility Determination. The following procedure was used to obtain the aqueous solubility results summarized in Example 8. Step 1. Determination of optimal UV/vis wavelengths and generation of standard curves for a compound of interest: • (1) For eight standard calibration curves (one plate), prepare 34 mL of 50:50 (v:v) universal buffer:acetonitrile in a 50 mL tube. • (2) Using a multichannel pipet, dispense (in μL) the buffer:acetonitrile in a deep well plate as follows:
• (6) Cover plate with lid and shake (200-300 rpm) at room temperature for 20 minutes. • (7) Mix all wells by pipetting up and down 10 times. • (8) Transfer 120 μL from each well to a UV transparent plate. Cover and shake for 3-5 minutes. Remove any bubbles in the wells using a pipet. • (9) Read from 220 nm to 500 nm at 10 nm increments on a spectrophotometer (e.g., SpectraMax®).
Step 2. Compound Solubility Testing Procedures Using the Millipore™ Multiscreen® Solubility Filter Plate.
Universal Aqueous Buffer: • (a) To prepare 500 mL of universal buffer, add the following: 250 mL Nanopure water; 1.36 mL (45 mM) ethanolamine; 3.08 g (45 mM) potassium dihydrogen phosphate; 2.21 g (45 mM) potassium acetate; thoroughly mix. • (b) Adjust pH to 7.4 with HCl and q.s. to 500 mL with 0.15 M KCl. • (c) Filter to remove particulates and reduce bacterial growth. • (d) Store at 4° C. in the dark.
Solubility Protocol: • (a) Add 285 μL of Universal Aqueous Buffer to desired wells of the Millipore™ Multiscreen® Solubility filter plate. • (b) Add 15 μL of 10 mM compound in DMSO to the appropriate wells. Add 15 μL of 100% DMSO only to 6 wells of the filter plate for blanks. • (c) Using a multichannel pipet, mix wells by pipetting up and down 10 times. Be careful not to touch the filters in the plate with the tips. • (d) Cover and gently shake (200-300 rpm) filter plate for 90 minutes at room temperature. • (e) Vacuum filter the aqueous solution from the Multiscreen® solubility filter plate into a polypropylene V-bottom plate. • (f) Transfer 60 μL of filtrate to a UV transparent plate (Greiner® UV-Star Analysis Plate). • (g) Add 60 μL of acetonitrile to each well and mix by pipetting up and down 10 times. • (h) Cover and gently shake for 3-5 minutes. Remove any bubbles with a pipet. • (i) Measure the absorbance of each well in the plate on the spectrophotometer (UV/vis) at the desired wavelength. For compounds in a plate with different absorbance peaks, set the spectrophotometer to read a spectrum (e.g., from 220 nm to 460 nm). • (j) Identify concentration using measured absorbance for each compound and the predetermined standard curve (see Step 1).

[4] = tested on: γ-glutamylcysteine synthetase (γ-GCS); experiment: Nrf2 target gene induction, γ-GCS mRNA (qPCR); format: cell-based, human; conditions: MDA-MB-435 cells
Method: as §1
FIG. 23. Induction of γ-GCS. MDA-MB-435 human melanoma cells were treated with vehicle (DMSO) or the indicated compounds and concentrations for 16 hours. γ-glutamylcysteine synthetase (γ-GCS) mRNA levels were quantified using qPCR and were normalized relative to a DMSO-treated sample run in parallel. Values are averages of duplicate wells.
as §2

CC1(C)CC[C@]2(C(=O)NCC(F)(F)F)CC[C@]3(C)[C@H](C(=O)C[C@@H]4[C@@]5(C)C=C(C#N)C(=O)C(C)(C)[C@@H]5CC[C@]43C)[C@@H]2C1 [Compound 63102, (4aS,6aR,6bR,8aR,12aR,12bR,14aR,14bS)-11-cyano-2,2,6a,6b,9,9,12a-heptamethyl-10,14-dioxo-N-(2,2,2-trifluoroethyl)-1,2,3,4,4a,5,6,6a,6b,7,8,8a,9,10,12a,12b,13,14,14a,14b-icosahydropicene-4a-carboxamide]
Number of Deaths (mice; oral gavage QDx14, 10 mg/kg): 0
Number of Deaths (mice; oral gavage QDx14, 50 mg/kg): 0
Number of Deaths (mice; oral gavage QDx14, 100 mg/kg): 0
Number of Deaths (mice; oral gavage QDx14, 250 mg/kg): 0
TrxR1 mRNA induction: concentration needed compared with unsaturated counterpart (402, 404) [1]: higher concentrations
Ferritin heavy chain mRNA induction: concentration needed compared with unsaturated counterpart (402, 404) (Ferritin heavy chain): higher concentrations
NQO1 induction (NQO1): 2 fold
Mean Maximum 404-02 Plasma Concentration (nM) ± SEM ([2]; 0.5 mg/kg/d, day 1, n=4): 3.4 ± 0.61 nM
Mean Maximum 404-02 Plasma Concentration (ng/mL) ± SEM ([2]; 0.5 mg/kg/d, day 1, n=4): 1.95 ± 0.35 ng/mL
Mean Maximum 404-02 Plasma Concentration (ng/mL) ± SEM ([2]; 0.5 mg/kg/d, day 12, n=4): 2.65 ± 0.6 ng/mL
Mean Maximum 404-02 Plasma Concentration (nM) ± SEM ([2]; 0.5 mg/kg/d, day 12, n=4, listed as 404-02, 0.5 mg/kg/day): 4.6 nM and 4.6 ± 1.0 nM
Mean Maximum 404-02 Plasma Concentration (nM) ± SEM ([2]; 5 mg/kg/d, day 1, n=4): 17.6 ± 6.6 nM
Mean Maximum 404-02 Plasma Concentration (ng/mL) ± SEM ([2]; 5 mg/kg/d, day 1, n=4): 10.1 ± 3.8 ng/mL
Mean Maximum 404-02 Plasma Concentration (ng/mL) ± SEM ([2]; 5 mg/kg/d, day 12, n=4): 7.3 ± 1.7 ng/mL
Mean Maximum 404-02 Plasma Concentration (nM) ± SEM ([2]; 5 mg/kg/d, day 12, n=4, listed as 404-02, 5 mg/kg/day): 12.7 nM and 12.7 ± 2.9 nM
Mean Maximum 404-02 Plasma Concentration (nM) ± SEM ([2]; 25 mg/kg/d, day 1, n=4): 29.3 ± 2.3 nM
Mean Maximum 404-02 Plasma Concentration (ng/mL) ± SEM ([2]; 25 mg/kg/d, day 1, n=4): 16.8 ± 1.3 ng/mL
Mean Maximum 404-02 Plasma Concentration (ng/mL) ± SEM ([2]; 25 mg/kg/d, day 12, n=4): 10.0 ± 3.7 ng/mL
Mean Maximum 404-02 Plasma Concentration (nM) ± SEM ([2]; 25 mg/kg/d, day 12, n=4, listed as 404-02, 25 mg/kg/day): 17.5 nM and 17.5 ± 6.4 nM
Mean Maximum 404-02 Plasma Concentration (nM) ± SEM ([2]; 75 mg/kg/d, day 1, n=4): 33.8 ± 4.7 nM
Mean Maximum 404-02 Plasma Concentration (ng/mL) ± SEM ([2]; 75 mg/kg/d, day 1, n=4): 19.4 ± 2.7 ng/mL
Mean Maximum 404-02 Plasma Concentration (nM) ± SEM ([2]; 75 mg/kg/d, day 12, n=4, listed as 404-02, 75 mg/kg/day): 48.6 nM
increase in AUC0-24hr after 12 days of dosing compared to day 1 ([2]; oral, 75 mg/kg dose level): 1.6 fold
accumulation (AUC day 12 vs day 1) ([2]; oral, other dose levels (0.5, 5, 25 mg/kg/day)): Accumulation was not observed
solubility at 90 min [3]: 0.06 µM (≈ 0.0345 µg/mL)
γ-GCS induction ([4]; 250 nM, fold induction above DMSO control): 4.5 fold
γ-GCS mRNA induction: concentration needed compared with unsaturated counterpart (402, 404) ([4]; 16 hours): higher concentrations
